How the values were obtained:
Assay type in all cases: biochemical
human Mer (578-872) = target: T1, human Mer (578-872) (Homo sapiens, UniProt Q12866); experiment: Kinase enzymatic activity assay ([33P]-ATP phosphate transfer), Mer; conditions: inhibitory activity on Mer; class symbols
T1 construct: GST (N); made in house; host or cells: Sf9 insect cells (baculovirus)
T1 sequence (Q12866 578-872): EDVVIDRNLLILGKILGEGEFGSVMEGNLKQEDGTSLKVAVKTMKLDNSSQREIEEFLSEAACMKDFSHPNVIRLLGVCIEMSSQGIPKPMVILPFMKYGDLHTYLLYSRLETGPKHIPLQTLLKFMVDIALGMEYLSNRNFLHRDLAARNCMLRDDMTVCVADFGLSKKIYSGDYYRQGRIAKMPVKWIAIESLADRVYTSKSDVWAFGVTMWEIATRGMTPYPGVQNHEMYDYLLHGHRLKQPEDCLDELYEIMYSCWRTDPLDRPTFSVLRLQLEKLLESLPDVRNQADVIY
Method: (§1) Preparation of Active Recombinant Kinase Proteins:
(§2) Recombinant human Tyro3 (455-end, the gene accession number NM_006293), human Axl (473-end, the gene accession number NM_021913) and human Mer (578-872, the gene accession number NM_006343) were independently expressed by baculovirus in Sf9 insect cells using an N-terminal GST tag. The recombinant proteins were stored at −70° C. in a medium containing 50 mM Tris-HCl, pH 7.5, 150 mM NaCl, 10 mM glutathione, 0.1 mM EDTA, 0.25 mM DTT, 0.1 mM PMSF and 25% glycerol. The recombinant proteins were aliquoted into smaller quantities after centrifugation to avoid repeated handling and multiple freeze/thaw cycles for the most favorable performance.
(§3) Preparation of Assay Reagents:
(§4) Kinase Assay Buffer: This buffer solution consisted of the following components: 25 mM MOPS, pH 7.2, 12.5 mM β-glycerol-phosphate, 25 mM MgCl2, 5 mM EGTA, 2 mM EDTA and DTT 0.25 mM which was added prior to use.
(§5) Kinase Dilution Buffer: Kinase Assay Buffer was diluted at a 1:4 ratio (5× dilution) with distilled water.
(§6) [^33P]-ATP assay cocktail: In a designated radioactive working area, a 250 μM [^33P]-ATP assay cocktail was prepared by the addition of the following components: 150 μL of 10 mM ATP stock solution, 100 μL [^33P]-ATP (1 mci/100 μL), 5.75 mL of kinase assay buffer. This solution was stored in 1 mL aliquots at −20 OC.
(§7) ATP stock solution (10 mM): The ATP stock solution was prepared by dissolving 55 mg of ATP in 10 mL of kinase assay buffer. It was stored in 200 μL aliquots at −20° C.
(§8) Active Kinase Stock Solution: The active recombinant kinase protein (0.1 μg/μL) was diluted with Kinase Dilution Buffer and the activity was assayed using a serial dilution method. The specific activity is expressed in nmoL/min/mg.
(§9) Substrates: poly(4:1 glu:tyr) is the substrate used for each kinase Tyro3, Axl and Mer: The peptide substrate was dissolved in water to give the final concentration of 1 mg/mL.
(§10) Test compound solution: Test compound was dissolved in DMSO to obtain a 10 mM solution. The assay solution was prepared by adding 5 μL of this solution to […] of 10% DMSO/water to obtain the final concentration of 50 μM.
(§11) The enzymatic activity of all three kinases was determined as follows. Using a 96-well plate, the wells were divided into three categories: Blank wells, […] and Test wells. In Test wells, 5 μL of the test compound solution and 5 μL of the substrate solution were added. In Control wells, 5 μL of 10% DMSO/water and 5 μL of the substrate solution were added. In Blank wells, 10 μL of 10% DMSO/water was added. To each well was added 10 μL of Active Kinase Stock Solution to make up the volume in each well to 20 μL. All test samples, controls and blanks were run in duplicate. The reaction was initiated by the addition of 5 μL of [^33P]-ATP assay cocktail, bringing the final volume up to 25 μL in every well. The mixture was incubated at room temperature for 30 minutes. The reaction was terminated by transferring 10 μL of the reaction mixture into a Millipore MultiScreen filter plate (cat. number MSPHN6B50). The filter plate was washed in a 1% phosphoric acid solution with constant gentle shaking for 15 minutes and this step was repeated once. After the plate was dried in air, scintillation fluid was added to each well and the radioactivity in each well in CPM was counted by a Microbeta TriLux. The corrected CPM in each test well was determined by subtracting the average value of Blank well values. Percentage of inhibition of the kinase enzymatic activity by the test compound was determined using the following formula: […]
(§12) The IC50 values were determined in a similar way following a serial dilution of the test compound. The percentage of inhibition at each concentration was calculated following the above formula. The IC50 was estimated from the curve of % Inhibition against Concentration in log unit using Prism 5, version 5.01.

[1] = target: T2, Recombinant human Tyro3 (455-end) (Homo sapiens, UniProt Q06418); experiment: Kinase enzymatic activity assay ([33P]-ATP phosphate transfer), Tyro3; conditions: inhibitory activity on Tyro3; class symbols
T2 construct: GST (N); made in house; host or cells: Sf9 insect cells (baculovirus)
T2 sequence (Q06418 455-890 limits assumed): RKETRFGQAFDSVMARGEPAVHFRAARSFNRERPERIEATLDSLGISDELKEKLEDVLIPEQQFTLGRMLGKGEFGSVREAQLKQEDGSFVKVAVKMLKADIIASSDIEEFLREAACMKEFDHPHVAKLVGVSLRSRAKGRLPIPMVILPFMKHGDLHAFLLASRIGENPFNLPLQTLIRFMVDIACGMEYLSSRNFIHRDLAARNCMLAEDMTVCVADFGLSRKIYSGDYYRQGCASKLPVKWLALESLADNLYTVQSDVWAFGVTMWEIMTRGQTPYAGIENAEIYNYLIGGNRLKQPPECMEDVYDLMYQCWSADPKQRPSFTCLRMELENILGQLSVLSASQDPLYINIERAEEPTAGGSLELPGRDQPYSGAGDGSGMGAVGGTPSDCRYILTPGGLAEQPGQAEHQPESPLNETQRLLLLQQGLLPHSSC
Method: as §1, §2, §3, §4, §5, §6, §7, §8, §9, §10, §11, §12

human Axl (473-end) = target: T3, human Axl (473-end) (Homo sapiens, UniProt P30530); experiment: Kinase enzymatic activity assay ([33P]-ATP phosphate transfer), Axl; conditions: inhibitory activity on Axl; class symbols
T3 construct: GST (N); made in house; host or cells: Sf9 insect cells (baculovirus)
T3 sequence (P30530 473-894 limits assumed): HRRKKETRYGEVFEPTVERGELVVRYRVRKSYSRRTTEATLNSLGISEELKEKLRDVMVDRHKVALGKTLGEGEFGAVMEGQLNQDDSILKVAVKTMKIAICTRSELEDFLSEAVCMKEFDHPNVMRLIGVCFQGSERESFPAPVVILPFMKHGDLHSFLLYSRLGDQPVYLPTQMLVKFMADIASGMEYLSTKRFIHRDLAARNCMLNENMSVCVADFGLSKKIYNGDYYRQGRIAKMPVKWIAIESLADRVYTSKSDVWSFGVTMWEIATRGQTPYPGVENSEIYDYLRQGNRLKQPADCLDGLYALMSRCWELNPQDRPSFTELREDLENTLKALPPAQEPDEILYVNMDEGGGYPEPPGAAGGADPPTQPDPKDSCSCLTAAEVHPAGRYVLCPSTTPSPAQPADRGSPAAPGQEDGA
Method: as §1, §2, §3, §4, §5, §6, §7, §8, §9, §10, §11, §12

| Compound | IC50 (human Mer (578-872)) | IC50 [1] | IC50 (human Axl (473-end)) |
| --- | --- | --- | --- |
| Nc1ncc(-c2cnn(C3CCOCC3)c2)cc1-c1ncc(-c2ccc(Cl)cc2)o1 | > 10000 nM | > 10000 nM | > 10000 nM |
| Nc1ncc(-c2cnn(C3CCNCC3)c2)cc1-c1nnc(C2CCCCC2)o1 | < 500 nM | < 500 nM | < 500 nM |
| CCCCCCCCCCCCN1CCC(n2cc(-c3cnc(N)c(-c4ncc(-c5ccccc5)o4)c3)cn2)CC1 | 500 to 1000 nM | < 500 nM | < 500 nM |
| Nc1ncc(-c2cnn(C3CCN(C(=O)c4ccccc4)CC3)c2)cc1-c1ncc(-c2cccc(Cl)c2)o1 | 1000 to 10000 nM | < 500 nM | < 500 nM |
| CC(C)(C)OC(=O)N1CCC(n2cc(-c3cnc(N)c(-c4nnc(-c5ccc(C(C)(C)C)cc5)o4)c3)cn2)CC1 | < 500 nM | 1000 to 10000 nM | 500 to 1000 nM |
| Nc1ncc(-c2cnn(C3CCN(C(=O)Cc4ccccc4)CC3)c2)cc1-c1nc(-c2ccccc2)no1 [1-(4-(4-(6-amino-5-(3-phenyl-1,2,4-oxadiazol-5-yl)pyridin-3-yl)-1H-pyrazol-1-yl)piperidin-1-yl)-2-phenylethanone] | 1000 to 10000 nM | 1000 to 10000 nM | 500 to 1000 nM |
| CC(=O)N1CCC(n2cc(-c3cnc(N)c(-c4nc(-c5ccccc5)no4)c3)cn2)CC1 [1-(4-(4-(6-amino-5-(3-phenyl-1,2,4-oxadiazol-5-yl)pyridin-3-yl)-1H-pyrazol-1-yl)piperidin-1-yl)ethanone] | < 500 nM | < 500 nM | < 500 nM |
| Nc1ncc(-c2cnn(C3CCN(C(=O)Cc4ccccc4)CC3)c2)cc1-c1nnc(-c2c(Cl)cccc2Cl)o1 [1-(4-(4-(6-amino-5-(5-(2,6-dichlorophenyl)-1,3,4-oxadiazol-2-yl)pyridin-3-yl)-1H-pyrazol-1-yl)piperidin-1-yl)-2-phenylethanone] | 1000 to 10000 nM | 1000 to 10000 nM | 1000 to 10000 nM |

Second part, the molecule after the results:

| IC50 (human Mer (578-872)) | IC50 [1] | IC50 (human Axl (473-end)) | Compound |
| --- | --- | --- | --- |
| < 500 nM | 500 to 1000 nM | < 500 nM | CC(C)CCC(=O)N1CCC(n2cc(-c3cnc(N)c(-c4nnc(-c5c(Cl)cccc5Cl)o4)c3)cn2)CC1 [1-(4-(4-(6-amino-5-(5-(2,6-dichlorophenyl)-1,3,4-oxadiazol-2-yl)pyridin-3-yl)-1H-pyrazol-1-yl)piperidin-1-yl)-4-methylpentan-1-one] |
| < 500 nM | < 500 nM | < 500 nM | CC(=O)N1CCC(n2cc(-c3cnc(N)c(-c4nnc(-c5c(Cl)cccc5Cl)o4)c3)cn2)CC1 [1-(4-(4-(6-amino-5-(5-(2,6-dichlorophenyl)-1,3,4-oxadiazol-2-yl)pyridin-3-yl)-1H-pyrazol-1-yl)piperidin-1-yl)ethanone] |
| 1000 to 10000 nM | < 500 nM | < 500 nM | CC(C)(C)C(=O)N1CCC(n2cc(-c3cnc(N)c(-c4ncc(-c5cccc(Cl)c5)o4)c3)cn2)CC1 [1-(4-(4-(6-amino-5-(5-(3-chlorophenyl)oxazol-2-yl)pyridin-3-yl)-1H-pyrazol-1-yl)piperidin-1-yl)-2,2-dimethylpropan-1-one] |
| 1000 to 10000 nM | < 500 nM | < 500 nM | Nc1ncc(-c2cnn(C3CCN(C(=O)Cc4ccccc4)CC3)c2)cc1-c1ncc(-c2cccc(Cl)c2)o1 [1-(4-(4-(6-amino-5-(5-(3-chlorophenyl)oxazol-2-yl)pyridin-3-yl)-1H-pyrazol-1-yl)piperidin-1-yl)-2-phenylethanone] |
| < 500 nM | < 500 nM | < 500 nM | CC(=O)N1CCC(n2cc(-c3cnc(N)c(-c4ncc(-c5cccc(Cl)c5)o4)c3)cn2)CC1 [1-(4-(4-(6-amino-5-(5-(3-chlorophenyl)oxazol-2-yl)pyridin-3-yl)-1H-pyrazol-1-yl)piperidin-1-yl)ethanone] |
| 1000 to 10000 nM | < 500 nM | < 500 nM | Nc1ncc(-c2cnn(C3CCN(C(=O)Cc4ccccc4)CC3)c2)cc1-c1ncc(-c2ccc(Cl)cc2)o1 [1-(4-(4-(6-amino-5-(5-(4-chlorophenyl)oxazol-2-yl)pyridin-3-yl)-1H-pyrazol-1-yl)piperidin-1-yl)-2-phenylethanone] |
| > 10000 nM | > 10000 nM | > 10000 nM | CC(=O)N1CCC(n2cc(-c3cnc(N)c(-c4ncc(-c5ccc(Cl)cc5)o4)c3)cn2)CC1 [1-(4-(4-(6-amino-5-(5-(4-chlorophenyl)oxazol-2-yl)pyridin-3-yl)-1H-pyrazol-1-yl)piperidin-1-yl)ethanone] |
|  | < 500 nM | < 500 nM | Nc1ncc(-c2cnn(C3CCNCC3)c2)cc1-c1nnc(-c2cc(F)ccc2F)o1 [3-(5-(2,5-difluorophenyl)-1,3,4-oxadiazol-2-yl)-5-(1-(piperidin-4-yl)-1H-pyrazol-4-yl)pyridin-2-amine] |
|  | < 500 nM | < 500 nM | Nc1ncc(-c2cnn(C3CCNCC3)c2)cc1-c1nnc(-c2c(Cl)cccc2Cl)o1 [3-(5-(2,6-dichlorophenyl)-1,3,4-oxadiazol-2-yl)-5-(1-(piperidin-4-yl)-1H-pyrazol-4-yl)pyridin-2-amine] |
|  | 1000 to 10000 nM | 500 to 1000 nM | CC(C)(C)OC(=O)N1CCC(n2cc(-c3cnc(N)c(-c4nnc(-c5c(Cl)cccc5Cl)o4)c3)cn2)CC1 [tert-butyl 4-(4-(6-amino-5-(5-(2,6-dichlorophenyl)-1,3,4-oxadiazol-2-yl)pyridin-3-yl)-1H-pyrazol-1-yl)piperidine-1-carboxylate] |

— patent publication US11034685B2, “Aminopyridine derivatives as TAM family kinase inhibitors” (SignalChem Lifesciences Corporation, priority 2013, dated 2021)
